ChEMBL document CHEMBL1687857, “Stereumins H-J, stereumane-type sesquiterpenes from the fungus Stereum sp” (J Nat Prod, 2011)
Activity calls are given as the source filed them.

Legend:
Candida albicans = experiment: Antimicrobial activity against Candida albicans at 50 ug/ml by disk diffusion method; type: functional, organism-based
SMMC-7721 = experiment: Cytotoxicity against human SMMC7721 cells at 40 uM by MTT assay; type: functional, cell-based
A549 = experiment: Cytotoxicity against human A549 cells at 40 uM by MTT assay; type: functional, cell-based
HL-60 = experiment: Cytotoxicity against human HL60 cells at 40 uM by MTT assay; type: functional, cell-based
Escherichia coli = experiment: Antimicrobial activity against Escherichia coli at 50 ug/ml by disk diffusion method; type: functional, organism-based
Staphylococcus aureus = experiment: Antimicrobial activity against Staphylococcus aureus at 50 ug/ml by disk diffusion method; type: functional, organism-based
Panagrellus redivivus = experiment: Antinematodal activity against Panagrellus redivivus at 100 ug/ml by disk diffusion method; type: functional, organism-based

C=C1[C@@H](O)[C@@H]2[C@H]3[C@H](CC[C@@]2(C)O)[C@@H](C)CC(=O)[C@@]13O
inactive: inhibition (Candida albicans) | Activity (SMMC-7721) | Activity (A549) | Activity (HL-60) | inhibition (Escherichia coli) | inhibition (Staphylococcus aureus) | Activity (Panagrellus redivivus)

C=C1[C@H](O)[C@@H]2[C@H]3[C@H](CC[C@]2(C)O)[C@@H](C)CC(=O)[C@@]13O
inactive: inhibition (Candida albicans) | Activity (SMMC-7721) | Activity (A549) | Activity (HL-60) | inhibition (Escherichia coli) | inhibition (Staphylococcus aureus) | Activity (Panagrellus redivivus)

C=C1[C@H](O)[C@@H]2[C@H]3[C@H](CC[C@]2(C)O)[C@@H](C)C[C@H](O)[C@@]13O
inactive: inhibition (Candida albicans) | Activity (SMMC-7721) | Activity (A549) | Activity (HL-60) | inhibition (Escherichia coli) | inhibition (Staphylococcus aureus) | Activity (Panagrellus redivivus)
